Results reported in patent publication US20210115040A1, “OGA INHIBITOR COMPOUNDS” (Janssen Pharmaceutica NV, priority 2018, published 2021).

Target: T1, recombinant human Meningioma Expressed Antigen 5 (MGEA5), also referred to as O-GlcNAcase (OGA) (Homo sapiens, UniProt O60502)
T1 construct: Full length OGA enzyme was purchased at OriGene (cat #TP322411); purchased OriGene TP322411
T1 sequence (O60502 1-916): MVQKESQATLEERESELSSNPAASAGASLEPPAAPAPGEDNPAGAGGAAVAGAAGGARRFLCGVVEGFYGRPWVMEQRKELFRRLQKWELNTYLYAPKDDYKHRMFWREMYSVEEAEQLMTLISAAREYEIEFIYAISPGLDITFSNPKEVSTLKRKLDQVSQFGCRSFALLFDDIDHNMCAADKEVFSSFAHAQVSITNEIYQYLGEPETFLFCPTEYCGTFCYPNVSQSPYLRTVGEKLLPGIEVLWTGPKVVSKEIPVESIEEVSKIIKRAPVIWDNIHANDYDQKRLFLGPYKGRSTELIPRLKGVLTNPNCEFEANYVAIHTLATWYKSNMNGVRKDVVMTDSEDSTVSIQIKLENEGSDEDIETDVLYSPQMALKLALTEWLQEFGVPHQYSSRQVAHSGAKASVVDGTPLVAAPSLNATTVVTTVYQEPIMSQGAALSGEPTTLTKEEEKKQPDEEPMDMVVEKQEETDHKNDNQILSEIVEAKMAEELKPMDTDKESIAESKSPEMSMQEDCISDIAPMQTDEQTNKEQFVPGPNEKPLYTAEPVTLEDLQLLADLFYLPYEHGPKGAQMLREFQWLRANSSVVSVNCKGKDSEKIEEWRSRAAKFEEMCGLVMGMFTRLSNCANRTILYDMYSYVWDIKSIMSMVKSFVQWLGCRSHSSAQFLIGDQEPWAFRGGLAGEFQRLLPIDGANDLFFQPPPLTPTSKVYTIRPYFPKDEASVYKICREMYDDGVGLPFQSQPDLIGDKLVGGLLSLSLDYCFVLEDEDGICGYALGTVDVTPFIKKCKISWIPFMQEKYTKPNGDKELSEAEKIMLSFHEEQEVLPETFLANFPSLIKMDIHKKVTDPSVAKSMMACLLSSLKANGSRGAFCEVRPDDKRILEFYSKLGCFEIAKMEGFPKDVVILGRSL
Assay: OGA biochemical assay (inhibition of FM-GlcNAc hydrolysis, fluorescence)
Details: FM-GlcNAc substrate
Outline: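 Full-length OGA (2 nM) pre-incubated 60 min at room temperature with compound, then FM-GlcNAc (100 uM final) hydrolysed 6 h at room temperature in 200 mM citrate/phosphate pH 7.2 with 0.005% Tween-20. Stopped with carbonate pH 11.0; fluorescein read at ex 485/em 538 nm. IC50 and Hill coefficient from curve fit between no-inhibitor and saturating-standard controls.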

IC50 (6 h at room temperature, read-out: Enzymatic hOGA, pIC50 (converted)): 12.6 nM | Emax (maximal effect, read-out: Enzymatic Emax (%)): 99%
SMILES: Cc1cc(C2CCCN(C(C)c3ccc4sc(C)nc4n3)C2)cc(C)n1 (racemic) [Compound 39]
